Experimental findings from patent EP4596574A1, “GLP-1/GCG/GIP TRIPLE-RECEPTOR AGONIST AND USE THEREOF” (Sunshine Lake Pharma Co., Ltd., priority 2022, dated 2024) are described below.

What all share (format): cell-based
Test [1] addresses T1, GLP-1R (Homo sapiens, UniProt P43220).
T1 construct: expressed in transfected cells; host or cells: HEK293 (HEK293-GLP-1R)
The experiment in a line: In vitro cell activity, cAMP production in HEK293 cells expressing GLP-1R. Particulars: HEK293-GLP-1R cells, cAMP; read-out: GLP-1R (EC50). Put shortly:
(§1)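 HEK293 transfectants, 4×10^5 cells/mL, 384-well. Detection: cAMP-d2 + anti-cAMP cryptate 1:1, RT 1 h dark or 4 °C o/n. Read 665/620 nm; 4-parameter nonlinear fit → EC50.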

The target in test [2] is T2, GCGR (Homo sapiens, UniProt P47871).
T2 construct: expressed in transfected cells; host or cells: HEK293 (HEK293-GCGR)
T2 sequence (P47871 26-477, species assumed): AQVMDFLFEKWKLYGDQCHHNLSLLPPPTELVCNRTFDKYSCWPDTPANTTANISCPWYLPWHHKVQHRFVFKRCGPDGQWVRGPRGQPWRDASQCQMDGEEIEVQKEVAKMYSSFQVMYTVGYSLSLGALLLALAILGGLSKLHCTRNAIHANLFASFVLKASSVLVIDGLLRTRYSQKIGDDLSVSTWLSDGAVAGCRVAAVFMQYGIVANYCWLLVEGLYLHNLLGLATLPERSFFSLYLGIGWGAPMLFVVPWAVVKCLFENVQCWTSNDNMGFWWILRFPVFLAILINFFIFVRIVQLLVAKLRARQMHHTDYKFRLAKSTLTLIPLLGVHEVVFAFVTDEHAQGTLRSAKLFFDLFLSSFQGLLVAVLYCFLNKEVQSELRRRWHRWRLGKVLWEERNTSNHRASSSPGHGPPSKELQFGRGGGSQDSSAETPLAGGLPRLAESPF
The experiment in a line: In vitro cell activity, cAMP production in HEK293 cells expressing GCGR. Particulars: HEK293-GCGR cells, cAMP; read-out: GCGR (EC50). Put shortly:
as §1
Background: Changes in cAMP serve as a functional read-out for many G protein-coupled receptors.

In test [3] the target is T3, GIPR (Homo sapiens, UniProt P48546).
T3 construct: expressed in transfected cells; host or cells: HEK293 (HEK293-GIPR)
T3 sequence (P48546 22-466): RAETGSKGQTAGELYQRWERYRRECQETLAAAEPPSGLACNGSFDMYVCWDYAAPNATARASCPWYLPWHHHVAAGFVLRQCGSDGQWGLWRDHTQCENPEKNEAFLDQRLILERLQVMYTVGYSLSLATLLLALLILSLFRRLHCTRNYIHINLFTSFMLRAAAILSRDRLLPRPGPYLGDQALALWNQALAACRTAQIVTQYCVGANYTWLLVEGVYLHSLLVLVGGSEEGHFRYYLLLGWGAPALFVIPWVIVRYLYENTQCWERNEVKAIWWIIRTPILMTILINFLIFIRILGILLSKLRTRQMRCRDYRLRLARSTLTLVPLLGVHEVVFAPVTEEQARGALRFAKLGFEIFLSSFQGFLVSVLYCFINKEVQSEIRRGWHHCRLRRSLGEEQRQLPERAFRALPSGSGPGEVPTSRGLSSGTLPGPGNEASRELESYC
The test is described as follows: In vitro cell activity, cAMP production in HEK293 cells expressing GIPR. The settings on record: HEK293-GIPR cells, cAMP; read-out: GIPR (EC50). In a few lines: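 HEK293 cells expressing human GIPR, thawed and diluted to 4×10^5 cells/mL, are stimulated with test compound. cAMP is measured by HTRF competition between cAMP-d2 and anti-cAMP cryptate. EC50 comes from a four-parameter nonlinear fit of signal ratio against concentration.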

Each structure is given as a SMILES string.

T1 sequence (P43220 24-463, species assumed): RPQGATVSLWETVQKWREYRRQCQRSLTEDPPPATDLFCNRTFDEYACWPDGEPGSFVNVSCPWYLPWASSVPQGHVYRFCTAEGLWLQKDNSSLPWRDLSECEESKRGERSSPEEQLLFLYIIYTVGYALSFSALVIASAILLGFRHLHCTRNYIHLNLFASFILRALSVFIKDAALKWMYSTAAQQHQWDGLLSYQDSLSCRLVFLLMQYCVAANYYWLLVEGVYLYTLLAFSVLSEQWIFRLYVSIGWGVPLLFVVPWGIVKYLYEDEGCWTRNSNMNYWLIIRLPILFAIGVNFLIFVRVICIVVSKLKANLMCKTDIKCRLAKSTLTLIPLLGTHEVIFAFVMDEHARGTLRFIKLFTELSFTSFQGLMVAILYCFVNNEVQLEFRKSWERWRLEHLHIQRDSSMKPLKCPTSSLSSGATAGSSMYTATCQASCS

Usually EC50 stands for the concentration giving half of the maximal effect. As for `CC[C@H](C)[C@H](NC(=O)[C@H](Cc1ccccc1)NC(=O)[C@H](C)NC(=O)C(C)(C)NC(=O)[C@H](CCC(N)=O)NC(=O)[C@H](C)NC(=O)[C@H](CCCCNC(=O)COCCOCCNC(=O)CC[C@H](NC(=O)CCCCCCCCCCCCCCCCC(=O)O)C(=O)O)NC(=O)[C@H](CCC(=O)O)NC(=O)[C@H](CC(=O)O)NC(=O)[C@H](CC(C)C)NC(=O)[C@H](CC(C)C)NC(=O)[C@@H](NC(=O)[C@H](CO)NC(=O)[C@H](Cc1ccc(O)cc1)NC(=O)[C@H](CC(=O)O)NC(=O)[C@H](CO)NC(=O)[C@@H](NC(=O)[C@](C)(Cc1ccccc1F)NC(=O)[C@@H](NC(=O)CNC(=O)[C@H](CCC(N)=O)NC(=O)C(C)(C)NC(=O)[C@@H](N)Cc1ccc(O)cc1)[C@@H](C)O)[C@@H](C)O)[C@@H](C)CC)C(=O)N[C@@H](CCC(=O)O)C(=O)N[C@@H](Cc1ccc(O)cc1)C(=O)N[C@@H](CC(C)C)C(=O)N[C@@H](CC(C)C)C(=O)N[C@@H](C)C(=O)NCC(=O)NCC(=O)N1CCC[C@H]1C(=O)N[C@@H](CO)C(=O)N[C@@H](CO)C(=O)NCC(=O)N[C@@H](C)C(=O)N1CCC[C@H]1C(=O)N1CCC[C@H]1C(=O)N1CCC[C@H]1C(=O)N[C@@H](CO)C(N)=O` [HEC-PT108], the EC50 in test [1] was found to be 0.197 nM; in test [2] it was 0.864 nM; in test [3], 0.054 nM.
In the case of `CC[C@H](C)[C@H](NC(=O)[C@H](CO)NC(=O)[C@H](Cc1ccc(O)cc1)NC(=O)[C@H](CC(=O)O)NC(=O)[C@H](CO)NC(=O)[C@@H](NC(=O)[C@](C)(Cc1ccccc1F)NC(=O)[C@@H](NC(=O)CNC(=O)[C@H](Cc1c[nH]cn1)NC(=O)C(C)(C)NC(=O)[C@@H](N)Cc1ccc(O)cc1)[C@@H](C)O)[C@@H](C)O)C(=O)N[C@@H](CC(C)C)C(=O)N[C@@H](CC(C)C)C(=O)N[C@@H](CC(=O)O)C(=O)N[C@@H](CCC(=O)O)C(=O)N[C@@H](CCCCNC(=O)COCCOCCNC(=O)CC[C@H](NC(=O)CCCCCCCCCCCCCCCCC(=O)O)C(=O)O)C(=O)N[C@@H](CCCNC(=N)N)C(=O)N[C@@H](CCC(N)=O)C(=O)NC(C)(C)C(=O)N[C@@H](CCC(=O)O)C(=O)N[C@@H](Cc1ccccc1)C(=O)N[C@H](C(=O)N[C@@H](CCC(=O)O)C(=O)N[C@@H](Cc1c[nH]c2ccccc12)C(=O)N[C@@H](CC(C)C)C(=O)N[C@@H](CC(C)C)C(=O)N[C@@H](C)C(=O)NCC(=O)NCC(=O)N1CCC[C@H]1C(=O)N[C@@H](CO)C(=O)N[C@@H](CO)C(=O)NCC(=O)N[C@@H](C)C(=O)N1CCC[C@H]1C(=O)N1CCC[C@H]1C(=O)N1CCC[C@H]1C(=O)N[C@@H](CO)C(N)=O)[C@@H](C)CC` [HEC-PT109], the figures for the EC50 in test [1], in test [2] and in test [3] were 0.14 nM, 0.707 nM and 0.052 nM, respectively.
Regarding `CC[C@H](C)[C@H](NC(=O)[C@H](CO)NC(=O)[C@H](Cc1ccc(O)cc1)NC(=O)[C@H](CC(=O)O)NC(=O)[C@H](CO)NC(=O)[C@@H](NC(=O)[C@](C)(Cc1ccccc1F)NC(=O)[C@@H](NC(=O)CNC(=O)[C@H](CCC(N)=O)NC(=O)C(C)(C)NC(=O)[C@@H](N)Cc1ccc(O)cc1)[C@@H](C)O)[C@@H](C)O)C(=O)N[C@@H](CC(C)C)C(=O)N[C@@H](CC(C)C)C(=O)N[C@@H](CC(=O)O)C(=O)N[C@@H](CCC(=O)O)C(=O)N[C@@H](CCCCNC(=O)COCCOCCNC(=O)CC[C@H](NC(=O)CCCCCCCCCCCCCCCCC(=O)O)C(=O)O)C(=O)N[C@@H](CCCNC(=N)N)C(=O)N[C@@H](CCC(N)=O)C(=O)NC(C)(C)C(=O)N[C@@H](CCC(=O)O)C(=O)N[C@@H](Cc1ccccc1)C(=O)N[C@H](C(=O)N[C@@H](CCC(=O)O)C(=O)N[C@@H](Cc1c[nH]c2ccccc12)C(=O)N[C@@H](CC(C)C)C(=O)N[C@@H](CC(C)C)C(=O)N[C@@H](C)C(=O)NCC(=O)NCC(=O)N1CCC[C@H]1C(=O)N[C@@H](CO)C(=O)N[C@@H](CO)C(=O)NCC(=O)N[C@@H](C)C(=O)N1CCC[C@H]1C(=O)N1CCC[C@H]1C(=O)N1CCC[C@H]1C(=O)N[C@@H](CO)C(N)=O)[C@@H](C)CC` [HEC-PT110], the EC50 is 0.116 nM in test [1], 1.33 nM in test [2] and 0.045 nM in test [3].
With `CC[C@H](C)[C@H](NC(=O)[C@H](Cc1ccccc1)NC(=O)[C@H](C)NC(=O)[C@H](CCC(N)=O)NC(=O)[C@H](CCC(N)=O)NC(=O)[C@H](CCCNC(=N)N)NC(=O)[C@H](CCCCNC(=O)COCCOCCNC(=O)CC[C@H](NC(=O)CCCCCCCCCCCCCCCCC(=O)O)C(=O)O)NC(=O)[C@H](CCC(=O)O)NC(=O)[C@H](CC(=O)O)NC(=O)[C@H](CC(C)C)NC(=O)[C@H](CC(C)C)NC(=O)[C@@H](NC(=O)[C@H](CO)NC(=O)[C@H](Cc1ccc(O)cc1)NC(=O)[C@H](CC(=O)O)NC(=O)[C@H](CO)NC(=O)[C@@H](NC(=O)[C@](C)(Cc1ccccc1F)NC(=O)[C@@H](NC(=O)CNC(=O)[C@H](Cc1c[nH]cn1)NC(=O)C(C)(C)NC(=O)[C@@H](N)Cc1ccc(O)cc1)[C@@H](C)O)[C@@H](C)O)[C@@H](C)CC)C(=O)N[C@@H](CCC(=O)O)C(=O)N[C@@H](Cc1ccc(O)cc1)C(=O)N[C@@H](CC(C)C)C(=O)N[C@@H](CC(C)C)C(=O)N[C@@H](CCC(=O)O)C(=O)NCC(=O)NCC(=O)N1CCC[C@H]1C(=O)N[C@@H](CO)C(=O)N[C@@H](CO)C(=O)NCC(=O)N[C@@H](C)C(=O)N1CCC[C@H]1C(=O)N1CCC[C@H]1C(=O)N1CCC[C@H]1C(=O)N[C@@H](CO)C(=O)O` [HEC-PT118], the EC50 in test [1] was determined as 1.2 nM; in test [2], 0.221 nM; in test [3], 0.128 nM.
In the same order, the values of `CC[C@H](C)[C@H](NC(=O)[C@H](Cc1ccccc1)NC(=O)[C@H](C)NC(=O)[C@H](CCCNC(=N)N)NC(=O)[C@H](CCC(N)=O)NC(=O)[C@H](CCCNC(=N)N)NC(=O)[C@H](CCCCNC(=O)COCCOCCNC(=O)CC[C@H](NC(=O)CCCCCCCCCCCCCCCCC(=O)O)C(=O)O)NC(=O)[C@H](CCC(=O)O)NC(=O)[C@H](CC(=O)O)NC(=O)[C@H](CC(C)C)NC(=O)[C@H](CC(C)C)NC(=O)[C@@H](NC(=O)[C@H](CO)NC(=O)[C@H](Cc1ccc(O)cc1)NC(=O)[C@H](CC(=O)O)NC(=O)[C@H](CO)NC(=O)[C@@H](NC(=O)[C@](C)(Cc1ccccc1F)NC(=O)[C@@H](NC(=O)CNC(=O)[C@H](Cc1c[nH]cn1)NC(=O)C(C)(C)NC(=O)[C@@H](N)Cc1ccc(O)cc1)[C@@H](C)O)[C@@H](C)O)[C@@H](C)CC)C(=O)N[C@@H](CCC(=O)O)C(=O)N[C@@H](Cc1ccc(O)cc1)C(=O)N[C@@H](CC(C)C)C(=O)N[C@@H](CC(C)C)C(=O)N[C@@H](CCC(=O)O)C(=O)NCC(=O)NCC(=O)N1CCC[C@H]1C(=O)N[C@@H](CO)C(=O)N[C@@H](CO)C(=O)NCC(=O)N[C@@H](C)C(=O)N1CCC[C@H]1C(=O)N1CCC[C@H]1C(=O)N1CCC[C@H]1C(=O)N[C@@H](CO)C(=O)O` [HEC-PT120] are 0.406 nM, 0.2 nM and 0.188 nM.
